# Target: MJ (MJ0796-G174W-G14C, single-Cys mutant based on Cys-less MJ0796; isolated nucleotide-binding domain) (Methanocaldococcus jannaschii, UniProt Q58206, C128I/C53G/G14C/G174W/K44A)
# Experiment: Trp174 fluorescence quenching
# Sequence of MJ (MJ0796-G174W-G14C, single-Cys mutant based on Cys-less MJ0796; isolated nucleotide-binding domain) (Q58206 whole entry G14C/K44A/C53G/C128I/G174W, the tested form may be a part): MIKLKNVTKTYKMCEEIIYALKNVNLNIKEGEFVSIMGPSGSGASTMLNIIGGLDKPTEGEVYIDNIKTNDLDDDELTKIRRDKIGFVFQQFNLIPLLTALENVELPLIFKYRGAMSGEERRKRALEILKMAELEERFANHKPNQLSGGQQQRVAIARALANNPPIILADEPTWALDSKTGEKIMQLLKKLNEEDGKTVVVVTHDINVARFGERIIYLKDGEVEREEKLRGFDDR
smiles,measurement,value
Nc1ncnc2c1ncn2[C@@H]1O[C@H](COP(=O)(O)OP(=O)(O)OP(=O)(O)O)[C@@H](O)[C@H]1O [ATP],Kd,70 ± 13 µM

# — paper PMC3901029 (Biochemical and biophysical research communications, 2013)
